Assays:
[1] = test system: interferon-gamma (IFNgamma); design: species or system mice; conditions: mouse, in vivo
[2] = test system: systemic tumor necrosis factor (TNF); test: Systemic TNF induction in vivo after subcutaneous injection (Example 4); conditions: mice
Method: The resiquimod preparation was made as an aqueous suspension in PBS.
At one hour and at three hours post dose, the mice were bled and systemic TNF was measured in the serum (pg/mL) by ELISA assay. The results are presented as the geometric means obtained for each group of five animals. […] This can be important in providing localized immune system enhancement without systemic TNF side effects.

TNF protein = test: Local in vivo activity: serum TNF protein by ELISA (Example 11); design: species or system Balb/c male mice; conditions: s.c. 1.0 mg/kg, mean (s.d.) of 4 mice, not detected = less than 10 pg/ml
Method: (§1) The final dose for either compound was 1.0 mg/kg. At each time point, the mice were bled, sacrificed, and the draining axial and brachial lymph nodes were removed and placed in RNA preservation fluid (RNA later reagent obtained from Ambion Corporation, Austin, Tex.). Serum samples were analyzed for TNF protein concentration (pg/ml) by ELISA as a measure of systemic presence of this cytokine. The draining lymph nodes were processed for measurement of TNF mRNA gene expression by quantitative PCR (7900HT Thermocycler obtained from Applied Biosystems, Carlsbad, Calif.). The data reported (Table 10) is the mean+/−standard deviation (s.d.) for each group. The “not detected” level for serum TNF concentration was less than 10 pg/ml.

[3] = test system: human peripheral mononuclear cells (PBMC); test: TNF production in human PBMC (Example 7); assay type: cell-based; conditions: for TNF: human PBMC, overnight at 37° C., ELISA
Method: The human peripheral blood mononuclear cells were prepared from human volunteers and placed in culture in 96 well microtiter plates. […] The cells were then incubated overnight at 37° C. The medium was removed and TNF concentration (ng/mL) was measured by ELISA assay (Table 6).

TNF mRNA = test: Local in vivo activity: TNF mRNA gene expression in draining lymph nodes by quantitative PCR (Example 11); design: species or system Balb/c male mice; conditions: s.c. 1.0 mg/kg; for TNF mRNA Gene Expression in Lymph Nodes [fold increase versus control (s.d.)]: draining axial and brachial lymph nodes
Method: as §1

| SMILES | In Vitro Challenge of Isolated Spleenocytes, IFNgamma, Control PBS Challenge [1] [pg/mL] | In Vitro Challenge of Isolated Spleenocytes, IFNgamma, HA Antigen Challenge [1] [pg/mL] | Serum TNF [pg/ml (s.d.)] (TNF protein; 1 hour post dose) | Serum TNF [pg/ml (s.d.)] (TNF protein; 3 hours post dose) | Serum TNF [pg/ml (s.d.)] (TNF protein; 6 hours post dose) | TNF mRNA Gene Expression in Lymph Nodes [fold increase versus control (s.d.)] (TNF mRNA; 1 hour post dose) | TNF mRNA Gene Expression in Lymph Nodes [fold increase versus control (s.d.)] (TNF mRNA; 3 hours post dose) | TNF mRNA Gene Expression in Lymph Nodes [fold increase versus control (s.d.)] (TNF mRNA; 6 hours post dose) | TNF mRNA Gene Expression in Lymph Nodes [fold increase versus control (s.d.)] (TNF mRNA; 18 hours post dose) | other results |
| --- | --- | --- | --- | --- | --- | --- | --- | --- | --- | --- |
| CCCCCCCCCCCCCCCCCC(=O)NCCCCOn1c(CCCC)nc2c(N)nc3ccccc3c21 [N-(4-{[4-amino-2-butyl-1H-imidazo[4,5-c]quinolin-1-yl]oxy}butyl)octadecanamide] | 4.82 | 293.51 | not detected | not detected | not detected | 0.65 (0.04) fold increase versus control | 1.62 (1.23) fold increase versus control | 7.23 (2.07) fold increase versus control | 1.55 (0.28) fold increase versus control | systemic TNF response (in words) ([2]; subcutaneous injection, 1 mg/Kg, summary of Table 3): does not induce a systemic TNF response; Serum TNF [pg/ml (s.d.)] (TNF protein; 18 hours post dose): not detected; TNF ([3]; 0.014 μM): 0.13 ng/mL; TNF ([3]; 0.043 μM): 0.17 ng/mL; TNF ([3]; 0.13 μM): 0.35 ng/mL; TNF ([3]; 0.37 μM): 2.51 ng/mL; TNF ([3]; 1.1 μM): 7.07 ng/mL; TNF ([3]; 3.3 μM): 28.73 ng/mL; TNF ([3]; 10 μM): 31.46 ng/mL; TNF ([3]; 30 μM): 29.47 ng/mL; induction of TNF-α production (in words) ([3]; summary statement, "as described above"): induce the production of TNF-α; cytokine induction effects, local versus systemic (in words) (TNF mRNA; TNF mRNA induced in draining lymph nodes without TNF protein in serum): primarily local |
| CCOCc1nc2c(N)nc3ccccc3c2n1CC(C)(C)O [Resiquimod, resiquimod, reference compound] | 3.84 | 91.88 | 4082 (873) pg/ml | 107 (35) pg/ml | 18 (4) pg/ml | 14.19 (3.83) fold increase versus control | 4.82 (0.70) fold increase versus control | 1.39 (0.27) fold increase versus control | 0.90 (0.23) fold increase versus control | TNF concentration at Times Following Treatment, 1 hour ([2]; s.c. 1 mg/Kg, serum at 1 hour post dose, geometric mean of 5 animals): 1140.41 pg/mL; TNF concentration at Times Following Treatment, 3 hour ([2]; s.c. 1 mg/Kg, serum at 3 hours post dose, geometric mean of 5 animals): <5 pg/mL |

— patent US10383938B2 (priority 2010, dated 2019)
